From patent US8921546B2, “Imidazolothiazole compounds for the treatment of disease” (Ambit Biosciences Corporation, priority 2006, dated 2014)
Structures can show the parent of a compound that is named as a salt. Where two headings read alike, the source gives them in different places.

Columns and labels:
MV4-11 cells = assay: Cellular proliferation assay (MTS), MV4-11; assay type: cell-based; conditions: Homo sapiens
Source text: Cellular Proliferation Assay
Cancer cell viability and proliferation can be evaluated using a tetrazolium salt reduction cell-based assay. In viable cells, this colorimetric assay can measure mitochondrial reduction of a tetrazolium component (MTS) into an […] formazan product.
This cell line was used to determine the ability of the compounds provided herein to inhibit Flt3 in intact cells. The RS4-11 cell line, which expresses the wild-type (WT) receptor, is also used as a control to verify the test compound's ability to inhibit the FLT3 receptor containing the ITD mutation.
MV4-11 cells were plated at 10,000 cells per well in DMEM medium with 0.5% serum. RS4-11 cells were plated at 20,000 cells per well in RPMI with 0.5% serum. […] An aliquot from each well of the compound plate was transferred to the plated cells and then incubated @ 37° C. in 5% CO2 (for 3 days for the MV4-11 cells, 2 days for the RS4-11 cells).
MTS tetrazolium compound (Owen's reagent) was thawed in a H2O bath. 20 μl of MTS tetrazolium was added to each well of optical plate and the cells were incubated @ 37° C. in 5% CO2 for 2 hours.

FLT3 = biological target: T1, FLT3 (Homo sapiens, UniProt P36888); assay: Binding constant (Kd) measurement, phage-displayed kinase competition binding assay, FLT3
T1 construct: made in house
T1 sequence (P36888 27-993): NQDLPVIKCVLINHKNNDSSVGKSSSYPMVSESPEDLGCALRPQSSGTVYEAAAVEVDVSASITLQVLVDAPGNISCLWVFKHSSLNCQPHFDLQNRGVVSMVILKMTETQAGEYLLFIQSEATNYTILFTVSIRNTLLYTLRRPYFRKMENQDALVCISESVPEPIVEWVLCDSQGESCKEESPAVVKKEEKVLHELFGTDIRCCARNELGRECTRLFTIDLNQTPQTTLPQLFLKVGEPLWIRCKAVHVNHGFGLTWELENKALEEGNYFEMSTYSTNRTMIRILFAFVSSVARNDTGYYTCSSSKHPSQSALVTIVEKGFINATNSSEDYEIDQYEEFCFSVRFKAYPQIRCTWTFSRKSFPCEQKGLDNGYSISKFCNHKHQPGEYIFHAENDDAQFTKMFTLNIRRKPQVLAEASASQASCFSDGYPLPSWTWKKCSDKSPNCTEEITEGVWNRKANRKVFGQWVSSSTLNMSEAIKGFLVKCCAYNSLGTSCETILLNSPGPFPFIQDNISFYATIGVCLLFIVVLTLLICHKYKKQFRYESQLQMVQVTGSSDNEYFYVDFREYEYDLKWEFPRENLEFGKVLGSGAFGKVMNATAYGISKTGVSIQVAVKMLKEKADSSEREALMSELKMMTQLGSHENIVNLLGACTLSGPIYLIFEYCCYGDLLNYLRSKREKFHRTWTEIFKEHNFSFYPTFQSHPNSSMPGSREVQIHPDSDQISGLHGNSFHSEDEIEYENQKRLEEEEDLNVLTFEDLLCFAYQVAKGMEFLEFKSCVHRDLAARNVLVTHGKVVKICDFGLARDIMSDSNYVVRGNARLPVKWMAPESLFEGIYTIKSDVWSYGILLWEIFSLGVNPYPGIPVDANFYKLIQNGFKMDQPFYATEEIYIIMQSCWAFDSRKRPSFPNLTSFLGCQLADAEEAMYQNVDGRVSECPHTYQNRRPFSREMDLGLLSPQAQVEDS
Experimental: (§1) Binding Constant (Kd) Measurements for Small-Molecule-Kinase Interactions
(§2) By testing across a large class of protein kinases, specificity of the kinase inhibitors provided herein is also determined. The components of the assays include various human kinases expressed as fusions to T7 bacteriophage particles and immobilized ligands that bind to the ATP site of the kinases. […] If the test compound binds the kinase, it competes with the immobilized ligand and prevents binding to the solid support. […] The results are read out by quantitating the amount of fusion protein bound to the solid support, which is accomplished by either traditional phage plaque assays or by quantitative PCR (qPCR) using the phage genome as a template.

KIT = biological target: T2, KIT (Homo sapiens, UniProt P10721); assay: Binding constant (Kd) measurement, phage-displayed kinase competition binding assay, KIT
T2 construct: made in house
Experimental: as §1, §2

CSF1R = biological target: T3, CSF1R (Homo sapiens, UniProt P07333); assay: Binding constant (Kd) measurement, phage-displayed kinase competition binding assay, CSF1R
T3 construct: made in house
Experimental: as §1, §2

[1] = MV4-11, 72 h, read-out: Cellular Assay MV-proliferation IC50 (nM)
[2] = MV4-11 cells, 72 hour incubation, MTS, read-out: Cellular Assay MV-proliferation IC50
[3] = read-out: Binding Assay FLT3 Kd

T2 sequence (P10721 26-976): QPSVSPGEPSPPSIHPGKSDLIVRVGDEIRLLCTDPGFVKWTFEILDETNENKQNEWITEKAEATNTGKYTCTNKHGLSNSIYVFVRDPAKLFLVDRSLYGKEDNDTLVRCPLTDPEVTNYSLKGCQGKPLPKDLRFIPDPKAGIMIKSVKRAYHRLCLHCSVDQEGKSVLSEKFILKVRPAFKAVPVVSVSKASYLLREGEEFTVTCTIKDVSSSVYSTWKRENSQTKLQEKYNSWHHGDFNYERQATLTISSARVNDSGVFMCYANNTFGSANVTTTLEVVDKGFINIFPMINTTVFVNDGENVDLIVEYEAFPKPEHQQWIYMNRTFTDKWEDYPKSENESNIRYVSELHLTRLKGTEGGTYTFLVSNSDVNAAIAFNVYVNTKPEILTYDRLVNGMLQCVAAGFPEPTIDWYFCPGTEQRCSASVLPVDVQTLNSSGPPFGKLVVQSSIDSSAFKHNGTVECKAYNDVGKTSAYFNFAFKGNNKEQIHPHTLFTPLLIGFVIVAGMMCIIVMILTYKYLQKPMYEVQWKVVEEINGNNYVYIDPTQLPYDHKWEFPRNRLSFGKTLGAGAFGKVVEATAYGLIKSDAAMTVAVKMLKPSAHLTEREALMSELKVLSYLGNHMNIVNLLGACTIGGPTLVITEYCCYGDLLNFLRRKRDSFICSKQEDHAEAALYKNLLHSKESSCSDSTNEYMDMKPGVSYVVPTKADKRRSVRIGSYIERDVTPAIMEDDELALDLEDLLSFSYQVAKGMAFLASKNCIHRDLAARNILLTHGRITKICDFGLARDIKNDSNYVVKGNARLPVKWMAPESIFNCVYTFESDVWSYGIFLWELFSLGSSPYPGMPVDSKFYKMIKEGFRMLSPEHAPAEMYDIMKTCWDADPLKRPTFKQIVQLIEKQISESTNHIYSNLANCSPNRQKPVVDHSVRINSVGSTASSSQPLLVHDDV
T3 sequence (P07333 20-972): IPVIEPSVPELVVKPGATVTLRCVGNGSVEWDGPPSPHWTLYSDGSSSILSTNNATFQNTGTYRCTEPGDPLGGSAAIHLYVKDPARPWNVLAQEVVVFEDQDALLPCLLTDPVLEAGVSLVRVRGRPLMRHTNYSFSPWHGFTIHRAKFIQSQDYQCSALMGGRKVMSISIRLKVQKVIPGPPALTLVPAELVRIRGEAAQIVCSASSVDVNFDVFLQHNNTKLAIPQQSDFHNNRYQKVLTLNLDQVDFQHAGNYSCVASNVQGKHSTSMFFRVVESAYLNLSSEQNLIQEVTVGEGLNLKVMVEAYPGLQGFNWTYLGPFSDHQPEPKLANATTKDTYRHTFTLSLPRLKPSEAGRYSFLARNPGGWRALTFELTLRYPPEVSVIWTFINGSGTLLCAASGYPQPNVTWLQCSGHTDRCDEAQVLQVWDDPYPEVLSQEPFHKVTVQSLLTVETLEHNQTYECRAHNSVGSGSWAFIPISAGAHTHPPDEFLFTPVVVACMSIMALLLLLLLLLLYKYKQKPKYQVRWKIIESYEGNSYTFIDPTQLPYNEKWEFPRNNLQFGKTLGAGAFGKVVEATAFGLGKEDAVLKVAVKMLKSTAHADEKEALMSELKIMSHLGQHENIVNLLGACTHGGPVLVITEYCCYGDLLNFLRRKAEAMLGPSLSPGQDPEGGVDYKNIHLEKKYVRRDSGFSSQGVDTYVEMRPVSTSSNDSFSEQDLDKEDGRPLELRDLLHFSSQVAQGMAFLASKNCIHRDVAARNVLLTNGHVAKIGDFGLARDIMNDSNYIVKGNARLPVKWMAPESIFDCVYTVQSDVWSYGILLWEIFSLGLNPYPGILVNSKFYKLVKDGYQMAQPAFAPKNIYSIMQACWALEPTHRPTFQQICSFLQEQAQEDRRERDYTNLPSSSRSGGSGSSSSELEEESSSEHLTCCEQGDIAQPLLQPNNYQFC

SMILES | Kd (KIT) [nM] | IC50 (MV4-11 cells; [2]) [nM] | Kd (CSF1R) [nM] | Kd (FLT3; [3]) [nM] | IC50 (MV4-11 cells; [1]) [nM] | Kd (FLT3) [nM]
CC(C)(C)c1cc(NC(=O)Nc2ccc(-c3cn4c(n3)sc3cc(OCCN5CCOCC5)ccc34)cc2)no1 [Compound B1, N-(5-tert-Butyl-isoxazol-3-yl)-N′-{4-[7-(2-morpholin-4-yl-ethoxy)imidazo[2,1-b][1,3]benzothiazol-2-yl]phenyl}urea] | – | – | – | – | < 10 | –
CC(C)(C)c1cc(NC(=O)Nc2ccc(-c3cn4c(n3)sc3cc(OC(=O)[C@@H]5CCCN5)ccc34)cc2)no1 [Compound B6, (2S)-pyrrolidine-2-carboxylic acid 2-{4-[3-(5-tert-butyl-isoxazol-3-yl)-ureido]-phenyl}-benzo[d]imidazo[2,1-b]thiazol-7-yl ester] | 10 to 100 | < 10 | – | – | – | < 10
CC(C)(C)c1cc(NC(=O)Nc2ccc(-c3cn4c(n3)sc3cc(OCCN5CCCCC5)ccc34)cc2)no1 [Compound B3, 1-(5-tert-Butyl-isoxazol-3-yl)-3-{4-[7-(2-piperidin-1-yl-ethoxy)-benzo[d]imidazo[2,1-b]thiazol-2-yl]-pheny}-urea hydrochloride] | < 10 | < 10 | – | < 10 | – | –
CC(C)(C)c1cc(NC(=O)Nc2ccc(-c3cn4c(n3)sc3cc(F)ccc34)cc2)no1 [Compound A2, 1-(5-tert-butyl-isoxazol-3-yl)-3-[4-(7-fluoro-benzo[d]imidazo[2,1-b]thiazol-2-yl)-phenyl]-urea] | – | < 10 | – | – | – | 10 to 100
CC(C)(C)c1cc(NC(=O)Nc2ccc(-c3cn4c(n3)sc3cc(CC(=O)O)ccc34)cc2)no1 [Compound C2, 2-{2-[4-({[(5-tert-Butylisoxazol-3-yl)amino]carbonyl}amino)phenyl]imidazo[2,1-b][1,3]benzothiazol-7-yl}acetic acid] | < 10 | < 10 | – | – | – | < 10
CCOC(=O)Cc1ccc2c(c1)sc1nc(-c3ccc(NC(=O)Nc4cc(C(C)(C)C)on4)cc3)cn12 [Compound C1, Ethyl 2-{2-[4-({[(5-tert-Butylisoxazol-3-yl)amino]carbonyl}amino)phenyl]imidazo[2,1-b][1,3]benzothiazol-7-yl}acetate] | < 10 | < 10 | – | – | – | < 10
CCN(CC)CCOc1ccc2c(c1)sc1nc(-c3ccc(NC(=O)Nc4cc(C(C)(C)C)on4)cc3)cn12 [Compound B2, 1-(5-tert-Butyl-isoxazol-3-yl)-3-{4-[7-(2-diethylamino-ethoxy)-benzo[d]imidazo[2,1-b]thiazol-2-yl]-phenyl}-urea] | < 10 | < 10 | – | – | – | < 10
Cc1ccc2c(c1)sc1nc(-c3ccc(NC(=O)Nc4cc(C(C)(C)C)on4)cc3)cn12 [Compound A3, 1-(5-tert-butyl-isoxazol-3-yl)-3-[4-(7-methyl-benzo[d]imidazo[2,1-b]thiazol-2-yl)-phenyl]-urea] | – | < 10 | – | – | – | < 10
CN1CCN(c2ccc3c(c2)sc2nc(-c4ccc(NC(=O)Nc5cc(C(C)(C)C)on5)cc4)cn23)CC1 [Compound A7, 1-(5-tert-butyl-isoxazol-3-yl)-3-{4-[7-(4-methyl-piperazin-1-yl)-benzo[d]imidazo[2,1-b]thiazol-2-yl]-phenyl}-urea] | – | < 10 | – | < 10 | – | –
CN1CCN(CCCOc2ccc3c(c2)sc2nc(-c4ccc(NC(=O)Nc5cc(C(C)(C)C)on5)cc4)cn23)CC1 [Compound B9, 1-(5-tert-Butyl-isoxazol-3-yl)-3-(4-{7-[3-(4-methyl-piperazin-1-yl)-propoxy]-benzo[d]imidazo[2,1-b]thiazol-2-yl}-phenyl)-urea] | 10 to 100 | < 10 | – | < 10 | – | –
CN1CCN(CCOc2ccc3c(c2)sc2nc(-c4ccc(NC(=O)Nc5cc(C(C)(C)C)on5)cc4)cn23)CC1 [Compound B4, 1-(5-tert-Butyl-isoxazol-3-yl)-3-(4-{7-[2-(4-methyl-piperazin-1-yl)-ethoxy]-benzo[d]imidazo[2,1-b]thiazol-2-yl}-phenyl)-urea hydrochloride] | < 10 | < 10 | – | < 10 | – | –
CC(C)(C)c1cc(NC(=O)Nc2ccc(-c3cn4c(n3)sc3ccccc34)cc2)no1 [Compound A1] | – | < 10 | – | < 10 | – | –
COc1ccc2c(c1)sc1nc(-c3ccc(NC(=O)Nc4cc(C(C)(C)C)on4)cc3)cn12 [Compound A5, 1-(5-tert-butyl-isoxazol-3-yl)-3-[4-(7-methoxy-benzo[d]imidazo[2,1-b]thiazol-2-yl)-phenyl]-urea] | – | < 10 | – | – | – | < 10
CC(C)(C)c1cc(NC(=O)Nc2ccc(-c3cn4c(n3)sc3cc(O)ccc34)cc2)no1 [Compound A4, 1-(5-tert-butyl-isoxazol-3-yl)-3-[4-(7-hydroxy-benzo[d]imidazo[2,1-b]thiazol-2-yl)-phenyl]-urea] | – | < 10 | – | < 10 | – | –
CC(C)(C)c1cc(NC(=O)Nc2ccc(-c3cn4c(n3)sc3cc(N5CCOCC5)ccc34)cc2)no1 [Compound A6, 1-(5-tert-Butyl-isoxazol-3-yl)-3-[4-(7-morpholin-4-yl-benzo[d]imidazo[2,1-b]thiazol-2-yl)-phenyl]-urea] | – | < 10 | – | – | – | < 10
CCN1CCN(C(=O)Cc2ccc3c(c2)sc2nc(-c4ccc(NC(=O)Nc5cc(C(C)(C)C)on5)cc4)cn23)CC1 [Compound C17, 1-(5-tert-butyl-isoxazol-3-yl)-3-(4-{7-[2-(4-ethyl-piperazin-1-yl)-2-oxo-ethyl]benzo[d]imidazo[2,1-b]thiazol-2-yl}-phenyl)-urea hydrochloride] | < 10 | – | 10 to 100 | – | < 10 | –

Now from value to molecule, other results behind:

Kd (KIT) [nM] | IC50 (MV4-11 cells; [2]) [nM] | Kd (CSF1R) [nM] | Kd (FLT3; [3]) [nM] | SMILES | IC50 (MV4-11 cells; [1]) [nM] | Kd (FLT3) [nM]
< 10 | < 10 | 10 to 100 | – | CCN(CC)CCNC(=O)Cc1ccc2c(c1)sc1nc(-c3ccc(NC(=O)Nc4cc(C(C)(C)C)on4)cc3)cn12 [Compound C16, 2-(2-{4-[3-(5-tert-butyl-isoxazol-3-yl)-ureido]-phenyl}-benzo[d]imidazo[2,1-b]thiazol-7-yl)-N-(2-diethylamino-ethyl)-acetamide hydrochloride] | – | –
< 10 | < 10 | – | – | CCN1CCN(CCCc2ccc3c(c2)sc2nc(-c4ccc(NC(=O)Nc5cc(C(C)(C)C)on5)cc4)cn23)CC1 [Compound D1, N-(5-tert-Butyl-isoxazol-3-yl)-N′-(4-{7-[3-(4-ethyl-piperazin-1-yl)propyl]imidazo[2,1-b][1,3]benzothiazol-2-yl}phenyl)urea hydrochloride] | – | –
< 10 | < 10 | 10 to 100 | – | CC(C)(C)c1cc(NC(=O)Nc2ccc(-c3cn4c(n3)sc3cc(C(=O)NCCN5CCOCC5)ccc34)cc2)no1 [Compound C19, 2-{4-[3-(5-tert-butyl-isoxazol-3-yl)-ureido]-phenyl}imidazo[2,1-b][1,3]benzothiazole-7-carboxylic acid (2-morpholin-4-yl-ethyl)-amide hydrochloride] | – | –
< 10 | < 10 | 10 to 100 | – | CC(C)(C)c1cc(NC(=O)Nc2ccc(-c3cn4c(n3)sc3cc(CC(=O)NCCN5CCCC5)ccc34)cc2)no1 [Compound C15, 2-(2-{4-[3-(5-tert-butyl-isoxazol-3-yl)-ureido]-phenyl}-benzo[d]imidazo[2,1-b]thiazol-7-yl)-N-(2-pyrrolidin-1-yl-ethyl)-acetamide hydrochloride] | – | –
